Assays:
[1] = Pharmacokinetics after single intravenous injection; type: in vivo; settings: cynomolgus monkeys, 3, 30 or 100 mg/kg intravenously
Experimental: To evaluate the pharmacokinetics of the anti-IGF-IR antibodies, cynomolgus monkeys were injected intravenously with 3, 30 or 100 mg/kg of 2.13.2 antibody in an acetate buffer. Serum was collected from the monkeys at various time points and anti-IGF-IR antibody concentrations in the monkeys were determined for a period of up to ten weeks levels. To quantitate functional serum antibody levels, the extracellular domain of the human IGF-IR (IGF-I-sR, R&D Systems, Catalog # 391GR) was bound to 96-well plates. Monkey serum (diluted between 1:100 and 1:15,000) was added to the assay plates so that each sample would be within the linear range of the standard curve and incubated under conditions in which any anti-IGF-IR antibody would bind to IGF-I-sR. After washing the plates, a labeled anti-human IgG antibody was added to the plates and incubated under conditions in which the anti-human IgG antibody would bind to the anti-IGF-IR antibody. The plates were then washed and developed, and a control standard curve and linear regression fits used to quantitate the amount of anti-IGF-IR antibodies.

MCF-7 tumors = test: Growth inhibition of breast cancer cell tumors; type: in vivo, nude mice
Experimental: Nude mice as described in Example VIII were implanted with biodegradable estrogen pellets (0.72 mg 17-β-estradiol/pellet, 60 day release; Innovative Research of America). After 48 hours, tumors were induced in nude mice essentially as described in Example IX except that MCF-7 cells (ATCC HTB-22) were used. MCF-7 cells are estrogen-dependent human breast carcinoma cells. Mice with established subcutaneous tumors of approximately 250 mm^3 were treated with 50 μg 2.13.2 antibody (i.p.) on days 1, 4, 7, 10, 13, 16, 19 and 22 […] or with 6.25 mg/kg taxol (i.p.) on days 1, 2, 3, 4, 5 (q1dx5), either as single agents or in combination, essentially as described in Example IX.
Mice having established tumors from MCF-7 cells as described immediately above were treated on day 1 with various amounts of 2.13.2 antibody (i.p.) alone or with 3.75 mg/kg adriamycin (i.v.), essentially as described in Example IX.
Mice having established tumors from MCF-7 cells as described immediately above were treated with 250 μg 2.13.2 antibody (i.p.) on days 1, 8, 15 and 23 or with a biodegradable tamoxifen pellet (25 mg/pellet, free base, 60 day release, Innovative Research of America), either as single agents or in combination, essentially as described in Example IX. The tamoxifen pellet was implanted on day 1 after the tumor was established.

Colo 205 tumors = test: Growth inhibition of colorectal cell tumors; type: in vivo, nude mice
Experimental: Tumors were induced in nude mice as described in Example IX except that Colo 205 cells (ATCC CCL 222) were used. Colo 205 cells are human colorectal adenocarcinoma cells. Mice with established subcutaneous tumors of approximately 250 mm^3 were treated with various amounts of 2.13.2 antibody (i.p.) or with 100 mg/kg […] (5-FU, i.v.), either as single agents or in combination, as described in Example IX. […] Mice with established Colo 205 tumors were treated on days 1, 8, 15 and 22 with 500 μg 2.13.2 (i.p.), 100 mg/kg 5-FU (i.v.) or a combination thereof.

IGF-IR = IGF-IR (Homo sapiens, UniProt P08069); test: IGF-IR levels in 3T3/IGF-IR tumors by western blot after antibody and/or adriamycin; type: in vivo, nude mice; design: expressed in transfected cells; host or cells: NIH-3T3 (mouse fibroblasts)
Experimental: Tumors were induced in nude mice as described in Example IX. Mice with established subcutaneous tumors of approximately 400 mm^3 were treated with a single injection of 250 μg 2.13.2 antibody (i.p.) or with 7.5 mg/kg adriamycin (i.v.), either as single agents or in combination, as described in Example IX. 72 hours after administration of the agents, tumors were extracted as described in Example VIII, and equal amounts of the tumor extracts were subjected to sodium […] polyacrylamide gel electrophoresis (SDS PAGE) and western blot analysis using the anti-IGF-IR antibody SC-713 (Santa Cruz). […] Each lane represents equal amounts of protein from individual tumors from individual mice.

[2] = target: T1, extracellular domain of IGF-IR (Homo sapiens, UniProt P08069); test: BIAcore affinity measurement, Protocol 1; type: binding; settings: BIAcore 3000; antibody captured on protein-A, IGF-IR extracellular domain injected
T1 construct: Different concentrations of the extracellular domain of IGF-IR were injected on the sensorchip
Experimental: We performed affinity measures of purified antibodies by surface plasmon resonance using the BIAcore 3000 instrument, following the manufacturer's protocols.
To perform kinetic analyses, protein-A was immobilized on the sensorchip surfaces of the BIAcore. The sensorchip was then used to capture the anti-IGF-IR antibodies of the present invention. Different concentrations of the extracellular domain of IGF-IR were injected on the sensorchip and the binding and dissociation kinetics of the interactions between the anti-IGF-IR antibodies and the extracellular domain of IGF-IR were analyzed. The data were evaluated with global fit Langmuir 1:1, using baseline drift models available on the BIAevaluation software provided by BIAcore.

IGF-IR levels in tumors, adriamycin and antibody together (IGF-IR; 72 hours after 250 μg 2.13.2 i.p. plus 7.5 mg/kg adriamycin i.v.): dramatic decrease in IGF-IR levels
IGF-IR levels in tumors, single agent (IGF-IR; 72 hours after single 250 μg 2.13.2 i.p. or 7.5 mg/kg adriamycin i.v.): some decrease in IGF-IR levels
Kd [2]: 3.5 nM
Substance: 2.13.2: human IgG2κ monoclonal antibody specific for IGF-IR from hybridoma 2.13.2 (ATCC PTA-2788)
dose proportionality of serum amounts [1]: dose-proportional
volume distribution [1]: 74 to 105 mL/kg
effect on effectiveness of taxol (MCF-7 tumors; 50 μg i.p. once every three days with 6.25 mg/kg taxol i.p. q1dx5): enhances the effectiveness of taxol
MCF-7 tumor growth (MCF-7 tumors; 50 μg i.p. once every three days, by itself): inhibits human breast cancer cell growth
MCF-7 tumor growth (MCF-7 tumors; 250 μg i.p. on days 1, 8, 15 and 23, by itself): inhibits human breast cancer growth
effect on effectiveness of tamoxifen (MCF-7 tumors; 250 μg i.p. on days 1, 8, 15 and 23 with tamoxifen pellet 25 mg): enhances the effectiveness of tamoxifen
MCF-7 tumor growth (MCF-7 tumors; single treatment i.p. on day 1, by itself): inhibits human breast cancer cell growth
effect on effectiveness of adriamycin (MCF-7 tumors; single treatment on day 1 with 3.75 mg/kg adriamycin i.v.): enhances the effectiveness of adriamycin
Colo 205 tumor growth (Colo 205 tumors; 500 μg i.p. on days 1, 8, 15 and 22): inhibits human colorectal cancer cell growth
effect on effectiveness of 5-FU (Colo 205 tumors; 500 μg i.p. on days 1, 8, 15 and 22 with 100 mg/kg 5-FU i.v.): enhances the effectiveness of 5-FU
effect on effectiveness of 5-FU (Colo 205 tumors; antibody given once with 100 mg/kg 5-FU i.v.): enhances the effectiveness of 5-FU
Colo 205 tumor growth (Colo 205 tumors; antibody i.p. given once, single agent): inhibits human colorectal cancer cell growth

— patent publication US7815907B2, “Antibodies to insulin-like growth factor I receptor” (Amgen Fremont Inc., priority 2001, dated 2010)
